In the NIST ThermoML archive (doi:10.1021/je800070y):
Numbers after ± are expanded uncertainties.

Conditions: Liquid, Rate of evaporation

Row | vapor or sublimation pressure (523.15 K) [kPa] | vapor or sublimation pressure (548.15 K) [kPa] | vapor or sublimation pressure (573.15 K) [kPa] | vapor or sublimation pressure (598.15 K) [kPa] | vapor or sublimation pressure (623.15 K) [kPa] | vapor or sublimation pressure (463.15 K) [kPa] | vapor or sublimation pressure (483.15 K) [kPa] | vapor or sublimation pressure (503.15 K) [kPa] | vapor or sublimation pressure (543.15 K) [kPa] | SMILES
1 | 1.31 ± 0.1 | 4.49 ± 0.35 | 12.3 ± 1 | 30 ± 2.3 | 65 ± 5 | – | – | – | – | OC[C@@H](O)[C@@H](O)[C@H](O)[C@@H](O)CO [D-sorbitol]
2 | 34.5 ± 2.7 | – | – | – | – | 3.85 ± 0.3 | 8.64 ± 0.67 | 17.9 ± 1.4 | 62.6 ± 4.8 | OCC(O)CO [glycerol]
